Legend:
[1] = biological target: VEGFR II (KDR) (Homo sapiens, UniProt P35968); assay: Inhibition of the KDR kinase activity (33P-ATP, poly-(Glu4Tyr) filter assay); assay type: biochemical; settings: phosphate incorporation into poly-(Glu4Tyr), 10 minutes at room temperature
Experimental: • Stock Solutions • Stock solution A: 3 mmol of ATP in water, pH 7.0 (−70° C.) • Stock solution B: g-33P-ATP 1 mCi/100 μl • Stock solution C: poly-(Glu4 Tyr). 10 mg/ml in water Solution for Dilutions • Substrate solvent: 10 mmol of DTT, 10 mmol of manganese chloride, 100 mmol of magnesium chloride • Enzyme solution: 120 mmol of tris/HCl, pH 7.5, 10 μM of sodium vanadium oxide Sample Application 1 Inhibition of the KDR- and FLT-1 Kinase Activity in the Presence of the Compounds According to the Invention
In a microtiter plate (without protein binding) that tapers to a point, 10 μl of substrate mix (10 μl of volume of ATP stock solution A+25 μCi of g-33P-ATP (about 2.5 μl of stock solution B)+30 μl of poly-(Glu4Tyr) stock solution C+1.21 ml of substrate solvent), 10 μl of inhibitor solution (substances corresponding to the dilutions, 3% DMSO in substrate solvent as a control) and 10 μl of enzyme solution (11.25 μg of enzyme stock solution (KDR or FLT-1 kinase) are added at 4° C. in 1.25 ml of enzyme solution (dilute). It is thoroughly mixed and incubated for 10 minutes at room temperature. Then, 10 μl of stop solution (250 mmol of EDTA, pH 7.0) is added, mixed, and 10 μl of the solution is transferred to a P 81 phosphocellulose filter. Then, it is washed several times in 0.1 M phosphoric acid. The filter paper is dried, coated with Meltilex and measured in a microbeta counter.
The IC50 values are determined from the inhibitor concentration, which is necessary to inhibit the phosphate incorporation to 50% of the uninhibited incorporation after removal of the blank reading (EDTA-stopped reaction).

[2] = biological target: T1, CYP2C9 (Homo sapiens, UniProt P11712); assay: Cytochrome P450 inhibition, isoenzyme 2C9; assay type: in vitro ADME; settings: baculovirus/insect cell-expressed recombinant human CYP2C9, read-out: Inhibition of the Cytochrome P450 Isoenzymes IC50, 2C9
T1 construct: host or cells: baculovirus/insect cells
T1 sequence (P11712 whole entry): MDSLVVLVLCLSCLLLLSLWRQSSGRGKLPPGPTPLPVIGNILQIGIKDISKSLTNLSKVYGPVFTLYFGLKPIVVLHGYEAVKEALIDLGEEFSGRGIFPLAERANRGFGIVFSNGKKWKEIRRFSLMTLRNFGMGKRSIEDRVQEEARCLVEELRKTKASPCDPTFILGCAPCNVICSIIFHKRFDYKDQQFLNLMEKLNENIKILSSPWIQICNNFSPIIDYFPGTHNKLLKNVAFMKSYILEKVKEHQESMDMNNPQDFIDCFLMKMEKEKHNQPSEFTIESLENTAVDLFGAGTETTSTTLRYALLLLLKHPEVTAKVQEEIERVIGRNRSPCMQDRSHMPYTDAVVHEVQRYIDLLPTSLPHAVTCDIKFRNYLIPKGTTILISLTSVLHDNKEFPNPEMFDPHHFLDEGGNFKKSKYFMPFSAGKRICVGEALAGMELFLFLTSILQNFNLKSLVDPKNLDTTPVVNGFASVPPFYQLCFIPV
Experimental: (§1) The Cytochrome P450 inhibition was performed according to the publication of Crespi et al. (Anal Biochem., 248, 188-190 (1997)) with use of baculovirus/insect cell-expressed, human Cytochrome P 450 isoenzymes (1A2, 2C9, 2C19, 2D6, 3A4).

[3] = biological target: T2, CYP3A4 (Homo sapiens, UniProt P08684); assay: Cytochrome P450 inhibition, isoenzyme 3A4; assay type: in vitro ADME; settings: baculovirus/insect cell-expressed recombinant human CYP3A4, read-out: Inhibition of the Cytochrome P450 Isoenzymes IC50, 3A4
T2 construct: host or cells: baculovirus/insect cells
T2 sequence (P08684 whole entry): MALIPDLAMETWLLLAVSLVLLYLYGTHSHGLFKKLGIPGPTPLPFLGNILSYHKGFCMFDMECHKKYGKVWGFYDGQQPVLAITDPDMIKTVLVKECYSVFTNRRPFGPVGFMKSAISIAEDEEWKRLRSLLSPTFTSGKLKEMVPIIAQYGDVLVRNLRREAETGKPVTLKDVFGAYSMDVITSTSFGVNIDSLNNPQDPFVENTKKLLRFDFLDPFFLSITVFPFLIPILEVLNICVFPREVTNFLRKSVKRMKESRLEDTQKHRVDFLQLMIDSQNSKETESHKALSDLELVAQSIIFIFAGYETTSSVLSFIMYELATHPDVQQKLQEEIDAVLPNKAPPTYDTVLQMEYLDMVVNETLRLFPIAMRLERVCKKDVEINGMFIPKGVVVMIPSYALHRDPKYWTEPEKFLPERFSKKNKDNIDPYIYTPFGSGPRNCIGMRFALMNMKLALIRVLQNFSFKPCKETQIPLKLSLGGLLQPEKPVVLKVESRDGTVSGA
Experimental: as §1

[4] = biological target: T3, CYP2C19 (Homo sapiens, UniProt P33261); assay: Cytochrome P450 inhibition, isoenzyme 2C19; assay type: in vitro ADME; settings: baculovirus/insect cell-expressed recombinant human CYP2C19, read-out: Inhibition of the Cytochrome P450 Isoenzymes IC50, 2C19
T3 construct: host or cells: baculovirus/insect cells
T3 sequence (P33261 whole entry): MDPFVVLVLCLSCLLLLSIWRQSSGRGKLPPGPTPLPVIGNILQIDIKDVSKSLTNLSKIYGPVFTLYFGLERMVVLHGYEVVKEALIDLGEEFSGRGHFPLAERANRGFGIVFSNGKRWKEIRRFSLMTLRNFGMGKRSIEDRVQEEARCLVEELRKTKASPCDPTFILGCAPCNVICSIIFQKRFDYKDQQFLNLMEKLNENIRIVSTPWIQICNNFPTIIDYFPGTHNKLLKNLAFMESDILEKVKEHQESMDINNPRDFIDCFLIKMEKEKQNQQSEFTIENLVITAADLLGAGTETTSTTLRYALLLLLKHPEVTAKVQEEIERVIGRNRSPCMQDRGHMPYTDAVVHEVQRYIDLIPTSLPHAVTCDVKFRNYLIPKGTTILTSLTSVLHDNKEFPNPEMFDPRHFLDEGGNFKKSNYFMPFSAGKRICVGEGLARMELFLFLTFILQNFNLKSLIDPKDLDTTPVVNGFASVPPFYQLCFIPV
Experimental: as §1

[5] = biological target: T4, CYP1A2 (Homo sapiens, UniProt P05177); assay: Cytochrome P450 inhibition, isoenzyme 1A2; assay type: in vitro ADME; settings: baculovirus/insect cell-expressed recombinant human CYP1A2, read-out: Inhibition of the Cytochrome P450 Isoenzymes IC50, 1A2
T4 construct: host or cells: baculovirus/insect cells
T4 sequence (P05177 1-516): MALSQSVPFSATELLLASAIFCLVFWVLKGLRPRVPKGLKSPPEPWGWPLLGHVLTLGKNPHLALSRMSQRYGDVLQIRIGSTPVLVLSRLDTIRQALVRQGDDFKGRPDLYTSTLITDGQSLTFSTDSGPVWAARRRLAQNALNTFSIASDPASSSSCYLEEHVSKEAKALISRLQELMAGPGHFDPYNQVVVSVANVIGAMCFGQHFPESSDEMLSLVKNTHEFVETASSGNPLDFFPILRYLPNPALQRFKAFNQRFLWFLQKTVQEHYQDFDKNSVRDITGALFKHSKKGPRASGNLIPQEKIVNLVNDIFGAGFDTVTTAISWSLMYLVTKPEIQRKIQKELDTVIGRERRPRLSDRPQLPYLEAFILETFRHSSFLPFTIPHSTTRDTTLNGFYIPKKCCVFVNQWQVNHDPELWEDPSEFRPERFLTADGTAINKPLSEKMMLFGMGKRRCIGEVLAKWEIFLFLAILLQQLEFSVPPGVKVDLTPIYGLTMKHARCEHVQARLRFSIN
Experimental: as §1

[6] = biological target: T5, CYP2D6 (Homo sapiens, UniProt P10635); assay: Cytochrome P450 inhibition, isoenzyme 2D6; assay type: in vitro ADME; settings: baculovirus/insect cell-expressed recombinant human CYP2D6, read-out: Inhibition of the Cytochrome P450 Isoenzymes IC50, 2D6
T5 construct: host or cells: baculovirus/insect cells
T5 sequence (P10635 whole entry): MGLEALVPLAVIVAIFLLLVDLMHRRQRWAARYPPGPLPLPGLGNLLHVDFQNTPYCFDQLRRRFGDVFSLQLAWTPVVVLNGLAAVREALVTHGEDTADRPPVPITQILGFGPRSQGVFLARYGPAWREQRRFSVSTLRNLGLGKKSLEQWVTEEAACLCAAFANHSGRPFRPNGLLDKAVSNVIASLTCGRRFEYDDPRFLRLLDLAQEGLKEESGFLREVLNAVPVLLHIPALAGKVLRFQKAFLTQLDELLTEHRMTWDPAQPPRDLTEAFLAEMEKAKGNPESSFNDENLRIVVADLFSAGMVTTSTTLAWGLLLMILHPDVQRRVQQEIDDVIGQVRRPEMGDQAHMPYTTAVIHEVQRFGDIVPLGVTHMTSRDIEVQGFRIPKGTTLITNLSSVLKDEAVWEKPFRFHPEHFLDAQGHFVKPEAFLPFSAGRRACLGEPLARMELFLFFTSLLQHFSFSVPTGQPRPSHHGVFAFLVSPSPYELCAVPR
Experimental: as §1

VEGFR II (KDR), sequence (P35968 20-1356, species assumed): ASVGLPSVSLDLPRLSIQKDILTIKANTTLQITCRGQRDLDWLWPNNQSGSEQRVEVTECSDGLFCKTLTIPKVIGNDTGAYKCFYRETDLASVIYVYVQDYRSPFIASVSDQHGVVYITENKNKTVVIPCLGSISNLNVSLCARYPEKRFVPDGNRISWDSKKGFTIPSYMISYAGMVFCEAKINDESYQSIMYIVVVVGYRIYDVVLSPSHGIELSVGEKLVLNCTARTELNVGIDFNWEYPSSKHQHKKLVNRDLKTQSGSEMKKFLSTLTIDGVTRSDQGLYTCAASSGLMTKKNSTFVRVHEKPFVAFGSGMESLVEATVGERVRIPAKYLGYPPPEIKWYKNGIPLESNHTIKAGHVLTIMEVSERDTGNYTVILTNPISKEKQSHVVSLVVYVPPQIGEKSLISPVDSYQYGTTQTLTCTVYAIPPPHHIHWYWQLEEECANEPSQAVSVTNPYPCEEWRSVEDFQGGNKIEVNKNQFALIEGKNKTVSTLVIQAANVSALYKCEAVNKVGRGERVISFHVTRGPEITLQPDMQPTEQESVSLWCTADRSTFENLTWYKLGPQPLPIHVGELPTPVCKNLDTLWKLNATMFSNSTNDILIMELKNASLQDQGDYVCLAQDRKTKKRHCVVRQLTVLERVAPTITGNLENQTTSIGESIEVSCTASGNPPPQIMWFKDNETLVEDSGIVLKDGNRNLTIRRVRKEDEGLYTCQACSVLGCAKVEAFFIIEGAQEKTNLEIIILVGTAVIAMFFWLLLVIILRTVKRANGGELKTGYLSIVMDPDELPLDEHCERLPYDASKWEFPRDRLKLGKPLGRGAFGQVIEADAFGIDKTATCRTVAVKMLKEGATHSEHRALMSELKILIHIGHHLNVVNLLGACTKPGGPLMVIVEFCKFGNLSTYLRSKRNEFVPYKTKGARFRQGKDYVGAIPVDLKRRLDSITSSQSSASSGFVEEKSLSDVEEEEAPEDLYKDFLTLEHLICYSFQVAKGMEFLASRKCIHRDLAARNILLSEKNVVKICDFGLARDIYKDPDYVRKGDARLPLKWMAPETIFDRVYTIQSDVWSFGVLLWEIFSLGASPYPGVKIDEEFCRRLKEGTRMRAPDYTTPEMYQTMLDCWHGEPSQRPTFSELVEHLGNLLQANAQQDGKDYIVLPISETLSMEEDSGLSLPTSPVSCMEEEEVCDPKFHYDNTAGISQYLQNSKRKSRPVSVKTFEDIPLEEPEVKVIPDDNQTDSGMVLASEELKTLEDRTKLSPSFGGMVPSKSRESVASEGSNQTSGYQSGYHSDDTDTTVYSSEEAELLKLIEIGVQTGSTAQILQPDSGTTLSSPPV

IC50 [1] [nM] | IC50 [2] [nM] | IC50 [3] [nM] | IC50 [4] [nM] | IC50 [5] [nM] | IC50 [6] [nM] | melting point [°C] | Structure (SMILES)
30 | 5200 | > 30000 | 3600 | > 30000 | > 30000 | – | O=C(Nc1cc2ccccc2cn1)c1ccccc1NCc1cc[n+]([O-])cc1 [Example 1, N-(Isoquinolin-3-yl)-2-(4-pyridylmethyl)aminobenzoic acid amide-N-oxide]
200 | – | – | – | – | – | 191.9 | O=C(Nc1cc2ccccc2cn1)c1ccccc1NCc1ccc[n+]([O-])c1 [Example 2]
50 | – | – | – | – | – | 181 to 184 | O=C(Nc1cccc(C(F)(F)F)c1)c1ccccc1NCc1cc[n+]([O-])cc1 [Example 4]
50 | – | – | – | – | – | 196.2 | O=C(Nc1cc2ccccc2cn1)c1cccnc1NCc1cc[n+]([O-])cc1 [Example 7]
50 | – | – | – | – | – | – | O=C(Nc1cccc(C(F)(F)F)c1)c1cccnc1NCc1cc[n+]([O-])cc1 [Example 8]
